Measured values taken from US20170112873A1, “Method and Topical Composition for the Treatment of Rosacea and Skin Erythema Using Selenium Sulfide” (priority 2015, published 2017).

System: facial Rosacea
Test: clinical type observations of topical application in facial Rosacea
Assay type: in vivo

S=[Se]=S [selenium sulfide]
redness, small dilated blood vessels and small red bumps characterizing the facial Rosacea (clinical type observations): observed to be decreased
effectiveness in facial Rosacea (fluid form selenium sulfide of 1% strength): Effective in most instances
redness, flushing and inflammation associated with facial Rosacea and skin erythema (topical application, clinical type observations): effective in significantly reducing
